Like-named read-outs stand apart in the source and are kept apart here. Bounds are passed on as bounds.

Drawing on PMC12081497, “Design, synthesis, and anti-breast cancer activity evaluation of novel 3-cyanopyridine derivatives as PIM-1 inhibitors” (Molecular Diversity, 2024), this text covers IC50 and melting point for 27 molecules.

One series deals with T1, PIM-1 kinase (Homo sapiens, UniProt P11309).
T1 construct: purchased Promega V4032
Conditions: cited from earlier work.

Series [1] deals with MCF-7 human cancer cell line. In words: In vitro anti-proliferative MTT assay. It counts as cell-based. The protocol:
In the present study, all synthesized cyanopyridine hybrids were subjected to in vitro cytotoxicity testing using the MTT assay method against MCF-7 human cancer.
All cell lines were maintained in RPMI1640 medium containing 10% FBS at 37 °C in 5% CO2 humidified incubator. Cell proliferation assay was determined by the MTT (3-[4,5-dimethyl-2-thiazolyl]-2,5- diphenyl-2H-tetrazolium bromide) method. Briefly, cells were plated in triplicate wells (3–5 × 10^4 cells/well) of 96-well flat-bottomed plates and incubated overnight prior to drug exposure and then treated with different concentrations of the tested compounds for 48 h. After that, 20 μL of MTT reagent at a final concentration of 0.5 mg/mL was added to each well. Cells were then incubated for 2 h with MTT, after which 100 μL of DMSO solution was added to dissolve the formazan salt resulting from the reduction of MTT and the absorbance was read at 570 nm using an automatic plate reader. The IC50 values were calculated according to inhibition ratios from three independent experiments.
A general note: Tetrazolium assays rely on reduction of a dye to a coloured formazan, in cell work by metabolically active cells.

Setting [2] is: Homo sapiens, MCF7, 48 h, MTT, MCF-7, 48 h treatment, read-out: Cytotoxicity IC50, SD (±), MCF7.
The mark [3] stands for this setting: MTT, MCF-7, 48 h treatment, read-out: Cytotoxicity IC50, SD (±), MCF7.

T1 sequence (P11309 whole entry): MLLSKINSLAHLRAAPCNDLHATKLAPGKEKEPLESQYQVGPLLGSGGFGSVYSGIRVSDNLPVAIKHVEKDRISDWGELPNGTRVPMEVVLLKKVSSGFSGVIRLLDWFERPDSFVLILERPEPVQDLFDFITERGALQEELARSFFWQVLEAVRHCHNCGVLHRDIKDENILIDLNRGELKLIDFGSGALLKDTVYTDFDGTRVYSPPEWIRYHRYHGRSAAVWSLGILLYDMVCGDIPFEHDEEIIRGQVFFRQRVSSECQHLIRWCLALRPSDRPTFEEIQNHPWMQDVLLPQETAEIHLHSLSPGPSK

One may read the IC50 as the midpoint of a concentration-inhibition curve. Take `COc1nc(-c2ccc(OCc3ccccc3)cc2)cc(-c2ccc(N(C)C)cc2)c1C#N` [F]: the IC50 at PIM-1 kinase is 0.13 µM.

On to `COc1ccc(-c2cc(-c3ccc(OCC(=O)Nc4ccccc4)c(OC)c3)c(C#N)c(=O)n2C)cc1` [9c, 2-(4-(3-Cyano-6-(4-methoxyphenyl)-1-methyl-2-oxo-1,2-dihydropyridin-4-yl)-2-methoxyphenoxy)-N-phenylacetamide], for which the concentration for half-maximal inhibition (IC50) in series [1] (setting [2]) is 26.1 ± 1.07 µM.

By melting point is commonly meant the temperature of the solid-liquid transition. For `COc1cc(-c2cc(-c3ccc[n+](C)c3)nc(OC)c2C#N)ccc1OCC(=O)Nc1ccccc1.[I-]` [compound 10, 5-cyano-6-methoxy-4-(3-methoxy-4-(2-oxo-2-(phenylamino)ethoxy)phenyl)-1'-methyl-2,3'-bipyridin-1'-iumiodide], the melting point was 284 to 286 °C. The IC50 in series [1] (setting [2]) worked out at 2.13 ± 0.09 µM. Besides, the IC50 in series [1] (setting [3]) amounted to 2.14 ± 0.09 µM.

As for `COc1cc(-c2cc(-c3ccc(Br)cc3)[nH]c(=O)c2C#N)ccc1OCC(=O)Nc1ccccc1` [7e, 2-(4-(6-(4-Bromophenyl)-3-cyano-2-oxo-1,2-dihydropyridin-4-yl)-2-methoxyphenoxy)-N-phenylacetamide], the IC50 in series [1] (setting [2]) came to 21.9 ± 0.9 µM.

Consider `COc1cc(-c2cc(-c3ccc4ccccc4c3)nc(OC)c2C#N)ccc1OCC(=O)Nc1ccccc1` [8f], for which the melting point is 193 to 195 °C.

In turn, `COc1cccc(-c2cc(-c3ccc(OCC(=O)Nc4ccccc4)c(OC)c3)c(C#N)c(OC)n2)c1` [8b, 2-(4-(3-Cyano-2-methoxy-6-(3-methoxyphenyl)-pyridin-4-yl)-2-methoxy-phenoxy)-N-phenylacetamide] showed a melting point of 158 to 160 °C. The half-maximal inhibitory concentration (IC50) in series [1] (setting [2]) was 36.2 ± 1.49 µM.

As to `N#CC1=C(c2cc3ccccc3nc2Cl)C=C(c2ccc(Br)cc2)NC1Cl` (stereo not drawn) [C], the IC50 on PIM-1 kinase is 0.46 µM.

For `COc1ccc(-c2cc(-c3ccc(OCC(=O)Nc4ccccc4)c(OC)c3)c(C#N)c(=O)[nH]2)cc1` [7c, 2-(4-(3-Cyano-6-(4-methoxyphenyl)-2-oxo-1,2-dihydropyridin-4-yl)-2-methoxyphenoxy)-N-phenylacetamide], the melting point was in the range of 284 to 286 °C. The IC50 in series [1] (setting [2]) turned out to be 7.72 ± 1.69 µM. For the same molecule, the IC50 in series [1] (setting [3]) is 7.73 ± 0.32 µM.

The molecule `COc1cc(-c2cc(-c3ccco3)nc(OC)c2C#N)ccc1OCC(=O)Nc1ccccc1` [8g, 2-(4-(3-Cyano-6-(furan-2-yl)-2-methoxypyridin-4-yl)-2-methoxyphenoxy)-N-phenyl acetamide] displayed a melting point of 178 to 180 °C. In addition, in series [1] (setting [2]), the concentration for half-maximal inhibition (IC50) is 21.3 ± 0.87 µM.

`COc1cc(-c2cc(-c3ccc4ccccc4c3)[nH]c(=O)c2C#N)ccc1OCC(=O)Nc1ccccc1` [7j, 2-(4-(3-Cyano-6-(naphthalen-2-yl)-2-oxo-1,2-dihydropyridin-4-yl)-2-methoxyphenoxy)-N-phenylacetamide] yielded a melting point greater than 300 °C. Further, in series [1] (setting [2]), the IC50 came out at 20.1 ± 0.83 µM.

Turning to `COc1cc(-c2cc(-c3cccs3)[nH]c(=O)c2C#N)ccc1OCC(=O)Nc1ccccc1` [7g, 2-(4-(3-Cyano-2-oxo-6-(thiophen-2-yl)-1,2-dihydropyridin-4-yl)-2-methoxyphenoxy)-N-phenylacetamide], the melting point was in the range of 293 to 295 °C. Besides, in series [1] (setting [2]), the IC50 was determined as 1.92 ± 0.08 µM. The IC50 in series [1] (setting [3]) worked out at 1.93 ± 0.08 µM.

With `COc1cccc(-c2cc(-c3ccc(OCC(=O)Nc4ccccc4)c(OC)c3)c(C#N)c(=O)n2C)c1` [9b, 2-(4-(3-Cyano-6-(3-methoxyphenyl)-1-methyl-2-oxo-1,2-dihydropyridin-4-yl)-2-methoxyphenoxy)-N-phenylacetamide], the IC50 in series [1] (setting [2]) came to 8.79 ± 0.36 µM; in series [1] (setting [3]), 8.8 ± 0.36 µM.

`COc1cc(-c2cc(-c3ccccc3)[nH]c(=O)c2C#N)ccc1OCC(=O)Nc1ccccc1` [7a, 2-(4-(3-Cyano-2-oxo-6-phenyl-1,2-dihydropyridin-4-yl)-2-methoxyphenoxy)-Nphenylacetamide] gave a melting point of 276 to 278 °C. Further, in series [1] (setting [2]), the IC50 worked out at 8.06 ± 0.33 µM. In addition, the IC50 in series [1] (setting [3]) is 8.06 ± 0.33 µM.

Consider `COc1cccc2c1C(=O)c1c(O)c3c(c(O)c1C2=O)C[C@@](O)(C(=O)CO)C[C@@H]3O[C@H]1C[C@H](N)[C@H](O)[C@H](C)O1` [Doxorubicin, reference compound], for which the IC50 in series [1] (setting [2]) and in series [1] (setting [3]) was 11.5 ± 0.47 µM each time.

For the molecule `COc1cc(-c2cc(-c3ccccc3)n(C)c(=O)c2C#N)ccc1OCC(=O)Nc1ccccc1` [9a, 2-(4-(3-Cyano-1-methyl-2-oxo-6-phenyl-1,2-dihydropyridin-4-yl)-2-methoxyphenoxy)-N-phenylacetamide], the IC50 in series [1] (setting [2]) and in series [1] (setting [3]) was 9.1 ± 0.37 µM throughout.

“2-(4-(6-(4-Chlorophenyl)-3-cyano-2-oxo-1,2-dihydropyridin-4-yl)-2-methoxyphenoxy)-N-phenylacetamide [9d]” had an IC50 in series [1] of 2.05 µM.

`COc1cccc(-c2cc(-c3ccc(OCC(=O)Nc4ccccc4)c(OC)c3)c(C#N)c(=O)[nH]2)c1` [7b, 2-(4-(3-Cyano-6-(3-methoxyphenyl)-2-oxo-1,2-dihydropyridin-4-yl)-2methoxyphenoxy)-N-phenylacetamide]: the IC50 in series [1] (setting [2]) was determined as 56.8 ± 2.34 µM.

With `COc1cc(-c2cc(-c3ccncc3)[nH]c(=O)c2C#N)ccc1OCC(=O)Nc1ccccc1` [7i, 2-(4-(3-Cyano-2-oxo-6-(pyridin-4-yl)-1,2-dihydropyridin-4-yl)-2-methoxyphenoxy)-N-phenylacetamide], the IC50 in series [1] (setting [2]) turned out to be 23.9 ± 0.98 µM.

`COc1cc(-c2cc(-c3ccc(Br)cc3)n(C)c(=O)c2C#N)ccc1OCC(=O)Nc1ccccc1` [9e, 2-(4-(6-(4-Bromophenyl)-3-cyano-1-methyl-2-oxo-1,2-dihydropyridin-4-yl)-2-methoxyphenoxy)-N-phenylacetamide]: the IC50 in series [1] (setting [2]) worked out at 18.3 ± 0.75 µM.

In turn, `COc1cc(-c2cc(-c3ccco3)n(C)c(=O)c2C#N)ccc1OCC(=O)Nc1ccccc1` [9g, 2-(4-(3-Cyano-6-(furan-2-yl)-1-methyl-2-oxo-1,2-dihydropyridin-4-yl)-2-methoxyphenoxy)-N-phenylacetamide] gave a melting point of 170 to 172 °C. Further, in series [1] (setting [2]), the IC50 came out at 13.2 ± 0.54 µM.

Molecule `COc1cc(-c2cc(-c3ccc(Cl)cc3)[nH]c(=O)c2C#N)ccc1OCC(=O)Nc1ccccc1` [7d, 2-(4-(6-(4-Chlorophenyl)-3-cyano-2-oxo-1,2-dihydropyridin-4-yl)-2methoxyphenoxy)-N-phenylacetamide] registered a melting point of 276 to 278 °C. The IC50 in series [1] (setting [2]) amounted to 41.1 ± 1.69 µM.

For the molecule `COc1cc(-c2cc(-c3ccc4ccccc4c3)n(C)c(=O)c2C#N)ccc1OCC(=O)Nc1ccccc1` [9f, 2-(4-(3-Cyano-1-methyl-6-(naphthalen-2-yl)-2-oxo-1,2-dihydropyridin-4-yl)-2-methoxyphenoxy)-N-phenylacetamide], the melting point is 193 to 195 °C. The IC50 in series [1] (setting [2]) worked out at 41.4 ± 1.7 µM.

In series [1], “2-(4-(6-(4-Chlorophenyl)-3-cyano-2-oxo-1,2-dihydropyridin-4-yl)-2-methoxyphenoxy)-N-phenylacetamide [8d]” displayed an IC50 of 18 ± 0.74 µM.

`COc1cc(-c2cc(-c3ccco3)[nH]c(=O)c2C#N)ccc1OCC(=O)Nc1ccccc1` [7f, 2-(4-(3-Cyano-6-(furan-2-yl)-2-oxo-1,2-dihydropyridin-4-yl)-2-methoxyphenoxy)-N-phenylacetamide] gave a melting point of 296 to 298 °C. For the same molecule, the IC50 in series [1] (setting [2]) was 3.98 µM. The IC50 in series [1] (setting [3]) was found to be 3.98 ± 0.16 µM.

On to `COc1ccc(-c2cc(-c3ccc(OCC(=O)Nc4ccccc4)c(OC)c3)c(C#N)c(OC)n2)cc1` [8c, 2-(4-(3-Cyano-2-methoxy-6-(4-methoxyphenyl)pyridin-4-yl)-2-methoxyphenoxy)-N-phenylacetamide], for which the melting point was in the range of 188 to 190 °C. In addition, the IC50 in series [1] (setting [2]) stood at 3.74 ± 0.15 µM. In series [1] (setting [3]), the concentration for half-maximal inhibition (IC50) is 3.75 ± 0.15 µM.

In series [1], “2-(4-(3-Cyano-2-oxo-6-phenyl-1,2-dihydropyridin-4-yl)-2-methoxyphenoxy)-N-phenylacetamide [8a]” showed an IC50 of 14.3 ± 0.59 µM.

On to `COc1cc(-c2cc(-c3ccc(Br)cc3)nc(OC)c2C#N)ccc1OCC(=O)Nc1ccccc1` [8e, 2-(4-(6-(4-Bromophenyl)-3-cyano-2-methoxypyridin-4-yl)-2-methoxyphenoxy)-N-phenylacetamide], for which the IC50 in series [1] (setting [2]) stood at 42.6 ± 1.75 µM.
